Measurements reported in US7423009B2, “Method for treatment of kidney diseases” (Kowa Company, Ltd., priority 2002, dated 2008).

Test system: nephritis induced by anti-GBM antiserum in wild type mouse
Test: Nephritis induced by anti-GBM antiserum in wild type mice: amount of albumin in urine
Format: in vivo
Details: for amount of albumin in urine: urine collected 18 hours after final administration
Experimental: (§1) Anti-GBM antiserum was administered to the wild type mice to induce nephritis, the mice were classified into three groups and the first group was administered with a peptide having an amino acid sequence of SLIGRL which is a selective stimulant for PAR-2 while the second group was administered with prednisolone which has been used as a treating agent for nephritis. In each group, administration was conducted once daily for consecutive seven days. The third group was a group which was not treated with a drug (control group). Further, for comparison, another untreated group where no anti-GBM antiserum was administered was prepared as the fourth group (in each group, n=6).
Immediately after the final administration of the drug solution, urine was collected for 18 hours and the amount of albumin in urine was measured.
as §1, with “In the same manner, anti-GBM” for “Anti-GBM”, “ASKH95” for “a peptide having an amino acid sequence of SLIGRL”, “group)” for “group). Further, for comparison, another untreated group where no anti-GBM antiserum was administered was prepared as the fourth group”
Nephritis was induced by a single administration of […] having about 16-fold of titer of antibody in an amount of 0.4 ml per mouse into tail vein (Jpn. J. Pharmacol., 33, 1145-1154, 1983). With regard to the amount of albumin in urine used as an index for nephritis, the amount of albumin in urine collected for 18 hours using a metabolic cage (manufactured by Sugiyamagen) was determined using an ELISA kit manufactured by Exocel and expressed in terms of μg/18 hours/100 g body weight. The resulting data were analyzed by a Student t-test and evaluated.
(§2) Anti-GBM antiserum was administered to a wild type mouse and, immediately after that, 0.3 μmol/kg of SLIGRL which is a selective stimulant for PAR-2 dissolved in a phosphate buffer or 3 mg/kg of prednisolone suspended in 0.5% methyl cellulose solution was administered thereto once daily for consecutive seven days (in each group, n=6). SLIGRL was administered to tail vein with a dose of 1 ml/100 g body weight at the rate of 0.1 ml/second. Prednisolone was compulsorily administered per os with a dose of 1 ml/100 g body weight. As a control, a group which was not treated with a drug (control group) was set up. As from immediately after the final administration of the drug solution, urine was collected for 18 hours using a metabolic cage and the amount of albumin in urine was measured.
as §2, with “In the same manner as example 3, anti-GBM” for “Anti-GBM”, “10 mg/kg” for “0.3 μmol/kg”, “ASKH95” for “SLIGRL”, “measured. Incidentally, ASKH95 is synthesized according to the literature (J. Clin. Invest. 111, 35-41, 2003), and used.” for “measured.”

## C[C@]12C=CC(=O)C=C1CC[C@@H]1[C@@H]2[C@@H](O)C[C@@]2(C)[C@H]1CC[C@]2(O)C(=O)CO [prednisolone]
Example 3, prednisolone 3 mg/kg per os once daily for seven days, not a significant suppression
  amount of albumin in urine reduced to an extent of % of the control group: 52.7%
Example 3, prednisolone 3 mg/kg per os once daily for seven days, control group 3528.5±1238.6
  amount of albumin in urine: 1670.6±579.4 μg/18 hours/100 g body weight
Example 4, prednisolone 3 mg/kg per os once daily for seven days
  effect on amount of albumin in urine compared with control group (in words): almost no effect
Example 4, prednisolone 3 mg/kg per os once daily for seven days, control group 81319.0±8884.3
  amount of albumin in urine: 75692.1±12846.9 μg/18 hours/100 g body weight

## 2-furoyl-LIGKV-OH [ASKH95]
Example 4, ASKH95 10 mg/kg to tail vein once daily for seven days
  effect on amount of albumin in urine compared with control group (in words): decreased significantly
Example 4, ASKH95 10 mg/kg to tail vein once daily for seven days, control group 81319.0±8884.3
  amount of albumin in urine: 34709.6±8703.3 μg/18 hours/100 g body weight

## SLIGRL
Example 3, SLIGRL 0.3 μmol/kg to tail vein once daily for seven days, control group 3528.5±1238.6
  amount of albumin in urine: 104.2±54.0 μg/18 hours/100 g body weight
Example 3, SLIGRL 0.3 μmol/kg to tail vein once daily for seven days, versus control group, significant
  decrease of amount of albumin in urine: 97.0%
